Measurements published in patent publication US10603701B2, “Bioremediation of 1,4-dioxane and chlorinated aliphatic hydrocarbons by propanotrophic bacteria” (New Jersey Institute of Technology, priority 2018, dated 2020).

Assays:
Azoarcus sp. DD4 [1] = test: Inhibition of 1,1-DCE on dioxane degradation by DD4 resting cells; type: cell-based; details: dioxane 20.9±0.3 mg/L and 1,1-DCE 5.0±0.4 mg/L, 24 hr
Procedure: Inhibition of 1,1-DCE on dioxane degradation by Azoarcus sp. DD4. Though DD4 can degrade both dioxane and 1,1-DCE, the effect(s) of 1,1-DCE on dioxane biodegradation was investigated. DD4 cells were harvested at the exponential growth phase and washed by NMS medium three times. Three treatments were prepared with the resting cells by the exposure of dioxane (19.7±1.2 mg/L), 1,1-DCE (5.5±0.1 mg/L), and both dioxane (20.9±0.3 mg/L) and 1,1-DCE (5.0±0.4 mg/L). Concentrations of 1,1-DCE and dioxane were monitored using GC at selected time intervals over 24 hr. Abiotic controls were treated identically. All experiments were performed in duplicate vials. […] Thus, it is very plausible that DD4 can resume its capability of degrading dioxane once 1,1-DCE is depleted by DD4.

Azoarcus sp. DD4 [2] = test: Biodegradation of concurrent dioxane and 1,1-DCE by DD4 in microcosms; type: cell-based; details: for effect of presence on utilization of 1-propanol and proliferation of DD4: 1-propanol as primary substrate
Procedure: Biodegradation of concurrent dioxane and 1,1-DCE by Azoarcus sp. DD4. To evaluate the performance of DD4 in removing dioxane and 1,1-DCE when both compounds are concurrently present, microcosms were prepared with DD4 inoculum in NMS medium and dosed with dioxane and 1,1-DCE. Two primary substrates were used, including propane and 1-propanol.

[3] = test system: Psuedonocardia dioxanivorans CB1190; details: previous studies; cited from earlier work
Azoarcus sp. DD4 [4] = test: Propane and dioxane degradation by DD4 with or without ATU; type: cell-based; details: propane as primary substrate; dioxane degradation thus prolonged
Procedure: Allylthiourea (ATU) was reported to inhibit the particulate MOs involved in nitrification and alkane degradation in various bacteria. To exploit the effects ofprm-deletion on the propane and dioxane degradation and further to distinguish the soluble versus particulate MO category the DD4 dioxane degrader belongs to, the wild-type and prm-deleted DD4 strains were cultured with and without the presence of ATU using propane as a primary substrate to cometabolize dioxane. Duplicate abiotic controls were prepared in parallel. The propane and dioxane depletion were monitored over time by GC analysis. Now referring to FIGS. 11a and 11b, prmADBC is only partially correlated with the propane degradation but not associated with the dioxane cometabolism.

Azoarcus sp. DD4 [5] = details: propane as substrate
Procedure: DD4's adaptability to pH, salinity and temperature. To identify its optimum growth conditions, DD4 was cultured with propane as the substrate under different pHs, temperatures, and salinities. The pHs of NMS medium were adjusted to 4.0, 5.0, 6.0, 7.0, 8.0, 9.0 and 10.0 with appropriate amount of 1 M HCl or 1 M NaOH. The NMS mediums were cultured under 10° C., 15° C., 20° C., 25° C., 30° C., 35° C., and 40° C. The salinities of NMS medium were adjusted to 0%, 0.5%, 1.0%, 1.5%, 2.0%, 2.5%, 3.0%, and 3.5% (w/v) with NaCl. 6 mL of propane (equivalent to 6% of the head space volume) was injected into the sealed bottles in all these assays. DD4 was inoculated at the initial concentration of 0.05 measured as OD600 and cultured under 30° C., 150 rpm for 72 h while shaking. The optical density (OD) values of bacterial suspensions were determined with spectrophotometer under 600 nm.

Mycobacterium sp. DT1 = test: Concurrent biodegradation of dioxane and TCE by DT1 in simulated microcosms; type: cell-based
Procedure: Concurrent biodegradation of dioxane and TCE by Mycobacterium sp. DT1. To evaluate the performance of DT1 in the removal of dioxane and TCE when both compounds are concurrently present, simulated microcosms were prepared with DT1 inoculum in BSM medium and dosed with dioxane and TCE. Propane was used as the primary substrate. […] After a short lag time (1 d), all the substrates, i.e. propane, dioxane, and TCE, were degraded synchronically. At the end of day 2, the initial 71.1, 20.2, and 2.15 mg/L of propane, dioxane, and TCE were degraded to 25.8, 11.3, and 1.59 mg/L, respectively. TCE was degraded to below the MDL of the GC-FID methods employed (i.e., 0.01 mg/L), and 85% of dioxane was removed from the simulated microcosm after 4 days incubation.

Azoarcus sp. DD4 [6] = test: Inhibition of dioxane, 1,1-DCE and propane degradation by acetylene (DD4 resting cells); type: cell-based; details: resting cells pre-incubated with acetylene 10% headspace volume, 20 minutes
Procedure: Inhibition of dioxane, 1,1-DCE, and propane degradation by acetylene. Acetylene is an irreversible suicide substrate that inactivates bacterial monooxygenases (MOs). Prior S. and Dalton H, 1985. Acetylene as a suicide substrate and active site probe for methane monooxygenase from Methylococcus capsulatus (Bath). FEMS Microbiology Letters. 29, 105-109. […] After being washed with NMS three times, resting cells were pre-incubated with acetylene (10% headspace volume) for 20 minutes prior to the amendment of dioxane, 1,1-DCE, or propane. The effect of the inhibitor acetylene was studied by monitoring the depletion of dioxane, 1,1-DCE, and propane over time in the presence or absence of acetylene. Duplicate abiotic controls were prepared in parallel. The propane and dioxane depletion were monitored over time by GC analysis.

C=C(Cl)Cl [1,1-DCE, 1,1-dichloroethylene]
effect of presence on dioxane degradation by DD4 resting cells (Azoarcus sp. DD4 [1]): greatly inhibited | effect of presence on utilization of 1-propanol and proliferation of DD4 (Azoarcus sp. DD4 [2]): did not inhibit | effect of presence on degradation of dioxane and consumption of propane for growth (Azoarcus sp. DD4 [2]; propane as primary substrate, NMS microcosm): significantly inhibited | effect of exposure on dioxane degradation by CB1190 [3]: significantly prohibit

C=CCNC(N)=S [ATU, Allylthiourea]
effect on propane consumption (Azoarcus sp. DD4 [4]): partially inhibit

[Cl-].[Na+] [NaCl]
optimal growth parameter, NaCl (Azoarcus sp. DD4 [5]; 72 h, OD600, w/v): 0-1% | NaCl concentration under which DD4 could survive and maintain growth and cometabolic activity toward dioxane (Azoarcus sp. DD4 [5]; w/v): 0.0-3.0%

ClC=C(Cl)Cl [TCE, trichloroethene]
effect of presence on degradation of dioxane or consumption of propane for growth (Mycobacterium sp. DT1; DT1, BSM, propane as primary substrate): no significant inhibition

C#C [acetylene]
effect of exposure on degradation of propane, 1,1-DCE and dioxane (Azoarcus sp. DD4 [6]): completely prohibited

C1COCCO1 [dioxane, 1,4-dioxane]
effect on 1,1-DCE degradation by DD4 resting cells (Azoarcus sp. DD4 [1]): no inhibitory effects | effect of presence on utilization of 1-propanol and proliferation of DD4 (Azoarcus sp. DD4 [2]): did not inhibit | dioxane removed after 4 days incubation (Mycobacterium sp. DT1; initial 20.2 mg/L): 85%
